The results in this text go back to PubChem BioAssay (NCI).

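Five compound concentrations were applied to cells in 96-well plates for 48 hours; endpoints were derived by simple linear interpolation of the resulting dose-response curve. GI50 marks 50% less growth. Definition used: TGI = concentration required for complete inhibition of growth.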

Common to all, as to experiment: DTP human tumour cell line panel, 48 h
In test [1] the test system is ACHN renal.
The test system of test [2] is HS 578T breast.
Test [3] relates to IGROV1 ovarian.
For test [4], the system named is KM12 colon.
The test system of test [5] is OVCAR-8 ovarian.
For test [6], the system named is RXF 393 renal.
Test [7] has as its system SNB-75 CNS.
Test [8] concerns NCI-H460 lung.
In test [9] the test system is MALME-3M melanoma.
The subject of test [10] is OVCAR-3 ovarian.

The term GI50 denotes the concentration giving 50% growth inhibition. What is called TGI is the concentration at which net growth stops. A low value points to more potent growth arrest.

For the compound `CN(C)c1nc(-c2cccs2)n2nc(-c3ccc(Cl)cc3)cc2n1`, the GI50 in [1] was 3.97 µM; in test [2], 3.11 µM; in [3] it was 5.28 µM; in test [4], over 100 µM; in test [5], 3.59 µM; in [6] it was 3.39 µM. In test [7], the GI50 was 2.26 µM. The TGI in test [1], in [2], in [3], in test [4], in test [5] and in [6] was over 100 µM throughout. In test [7], this compound came in with a TGI of 10.4 µM.

For `COC(=O)C(Cc1ccccc1)N/C=C\C(=O)c1ccc(Cl)cc1` (configuration not stated), the GI50 in test [1] is 23.6 µM; in test [2], 25 µM; in test [3], over 100 µM; in [4], 21.2 µM; in test [8], 20.5 µM; in test [5], 35.3 µM. Besides, the GI50 was 20.4 µM in test [6] and over 100 µM in [7]. In addition, the TGI in test [1] was 54.9 µM; in test [2], 63.8 µM; in test [3] it was over 100 µM; in test [4], 47.1 µM; in test [8], 48.2 µM; in test [5], 88.9 µM. Moreover, the TGI in [6] is 53.3 µM; in test [7], over 100 µM.

Turning to `CC(C)(C)C1(O)Cc2ccccc2C(=O)O1` (configuration not stated), the TGI in [1], in [3], in [4], in test [9], in test [8] and in test [10] was over 100 µM each time. Moreover, the TGI in [5], in test [6] and in [7] was over 100 µM each time.

`CC1(C)OC(=O)C=C([O-])O1.CC1(C)OC(=O)C=C([O-])O1.O=c1c(O)c(-c2ccc([O-])cc2[O-])oc2cc(O)cc(O)c12.[Ti+4]`: the TGI in test [1], in test [3], in test [4], in [9], in [8] and in test [10] was over 100 µM throughout. Moreover, the TGI was over 100 µM in test [5], 93.3 µM in test [6] and 60.4 µM in [7]. Besides, the GI50 in [6] was 36.7 µM.

Turning to `CC1(C)CCc2cc3c(cc2O1)OCCC3=O`, the TGI in test [1], in test [3], in test [4], in [9], in [8] and in [10] was over 100 µM throughout. In addition, the TGI in test [5], in test [6] and in [7] was over 100 µM in each case.

For the compound `N#Cc1c(N)c(C(=O)O)nn(-c2cccc(C(F)(F)F)c2)c1=O`, the TGI in test [1], in test [3], in [4], in test [9], in [8] and in test [10] was over 100 µM in each case. For the same compound, the TGI in test [5], in test [6] and in test [7] was over 100 µM in each case.

Turning to `COc1ccc(C2=NC(C)(C)CO2)cc1`, the TGI in [1], in [3], in test [4], in [9], in [8] and in [10] was over 100 µM in each case. In addition, the TGI in test [5], in [6] and in test [7] was over 100 µM each time.

With `CCCSc1cc(Cl)nc(N)n1`, the GI50 in test [1], in test [3], in [4], in [9], in [8] and in test [10] was over 100 µM in each case. Also, the GI50 in [5] was over 100 µM; in [6], over 100 µM; in test [7], 90.1 µM. Moreover, the TGI in test [1], in [3], in [4], in test [9], in test [8] and in test [10] was over 100 µM throughout. In addition, the TGI in [5], in test [6] and in [7] was over 100 µM in each case.

For the compound `O=c1c2ccccc2c2c3c1cccc3c1cccc3c(=O)c4ccccc4c2c31`, the TGI in test [1], in [3], in [4], in test [9], in test [8] and in test [10] was over 100 µM in each case. For the same compound, the TGI in test [5], in test [6] and in test [7] was over 100 µM each time.

As to `COc1ccc(C2C(N)=NCC2c2ccccn2)cc1` (configuration not stated), the TGI in [1], in test [3], in [4], in test [9], in test [8] and in test [10] was over 100 µM each time. In addition, the TGI in test [5], in [6] and in [7] was over 100 µM each time.
